Experimental data as given in patent US10335409B2 (priority 2012, dated 2019).
Read-outs that look alike come from different tables or passages of the source.

Tests used:
[1] = test system: genotype 1b NS3/4a protease inhibitor resistant variant D168A transient HCV replicon in Huh-7-derived cells; experiment: Transient-transfected HCV replicon EC50, genotype 1b D168A; type: cell-based, hepatitis C virus; conditions: 72 h
[2] = test system: genotype 2a (JFH-1) stable HCV replicon in Huh-7-derived cells; experiment: Stable subgenomic HCV replicon EC50, genotype 2a (Renilla luciferase); type: cell-based, hepatitis C virus; conditions: stable replicon genotype 2a, 72 h, read-out: EC50 2A RLUC
In short: (§1)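 Compounds, three-fold diluted, were applied to Huh-7-derived cells harbouring luciferase replicons (genotype 1a H77, 1b Con1, 2a JFH-1, 4a ED43, with strain-specific adaptive mutations). Seventy-two hours later, intracellular replication was gauged by Renilla luciferase activity and EC50 derived by regression.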

[3] = test system: genotype 1b (Con1) wild type transient HCV replicon in Huh-7-derived cells; experiment: Transient-transfected HCV replicon EC50, genotype 1b wild type; type: cell-based, hepatitis C virus; conditions: transient-transfected replicon genotype 1b wild type, 72 h, read-out: EC50 1B WT
[4] = test system: genotype 1b (Con1) stable HCV replicon in Huh-7-derived cells; experiment: Stable subgenomic HCV replicon EC50, genotype 1b (Renilla luciferase); type: cell-based, hepatitis C virus; conditions: stable replicon genotype 1b, 72 h, read-out: EC50 1B RLUC
In short: as §1

[5] = test system: genotype 1a NS3/4a protease inhibitor resistant variant R155K transient HCV replicon in Huh-7-derived cells; experiment: Transient-transfected HCV replicon EC50, genotype 1a R155K; type: cell-based, hepatitis C virus; conditions: 72 h
[6] = test system: genotype 1a (H77) stable HCV replicon in Huh-7-derived cells; experiment: Stable subgenomic HCV replicon EC50, genotype 1a (Renilla luciferase); type: cell-based, hepatitis C virus; conditions: stable replicon genotype 1a, 72 h, read-out: EC50 1A RLUC
In short: as §1

[7] = target: HCV NS3 protease domain genotype 3a (Hepatitis C virus genotype 3a, UniProt Q81258); experiment: Ki determination, NS3 protease genotype 3a (fluorogenic depsipeptide substrate); type: biochemical; conditions: 200 pM enzyme, NS4A peptide
Sequence of HCV NS3 protease domain genotype 3a (Q81258 whole entry, looked up, the tested form may be a part): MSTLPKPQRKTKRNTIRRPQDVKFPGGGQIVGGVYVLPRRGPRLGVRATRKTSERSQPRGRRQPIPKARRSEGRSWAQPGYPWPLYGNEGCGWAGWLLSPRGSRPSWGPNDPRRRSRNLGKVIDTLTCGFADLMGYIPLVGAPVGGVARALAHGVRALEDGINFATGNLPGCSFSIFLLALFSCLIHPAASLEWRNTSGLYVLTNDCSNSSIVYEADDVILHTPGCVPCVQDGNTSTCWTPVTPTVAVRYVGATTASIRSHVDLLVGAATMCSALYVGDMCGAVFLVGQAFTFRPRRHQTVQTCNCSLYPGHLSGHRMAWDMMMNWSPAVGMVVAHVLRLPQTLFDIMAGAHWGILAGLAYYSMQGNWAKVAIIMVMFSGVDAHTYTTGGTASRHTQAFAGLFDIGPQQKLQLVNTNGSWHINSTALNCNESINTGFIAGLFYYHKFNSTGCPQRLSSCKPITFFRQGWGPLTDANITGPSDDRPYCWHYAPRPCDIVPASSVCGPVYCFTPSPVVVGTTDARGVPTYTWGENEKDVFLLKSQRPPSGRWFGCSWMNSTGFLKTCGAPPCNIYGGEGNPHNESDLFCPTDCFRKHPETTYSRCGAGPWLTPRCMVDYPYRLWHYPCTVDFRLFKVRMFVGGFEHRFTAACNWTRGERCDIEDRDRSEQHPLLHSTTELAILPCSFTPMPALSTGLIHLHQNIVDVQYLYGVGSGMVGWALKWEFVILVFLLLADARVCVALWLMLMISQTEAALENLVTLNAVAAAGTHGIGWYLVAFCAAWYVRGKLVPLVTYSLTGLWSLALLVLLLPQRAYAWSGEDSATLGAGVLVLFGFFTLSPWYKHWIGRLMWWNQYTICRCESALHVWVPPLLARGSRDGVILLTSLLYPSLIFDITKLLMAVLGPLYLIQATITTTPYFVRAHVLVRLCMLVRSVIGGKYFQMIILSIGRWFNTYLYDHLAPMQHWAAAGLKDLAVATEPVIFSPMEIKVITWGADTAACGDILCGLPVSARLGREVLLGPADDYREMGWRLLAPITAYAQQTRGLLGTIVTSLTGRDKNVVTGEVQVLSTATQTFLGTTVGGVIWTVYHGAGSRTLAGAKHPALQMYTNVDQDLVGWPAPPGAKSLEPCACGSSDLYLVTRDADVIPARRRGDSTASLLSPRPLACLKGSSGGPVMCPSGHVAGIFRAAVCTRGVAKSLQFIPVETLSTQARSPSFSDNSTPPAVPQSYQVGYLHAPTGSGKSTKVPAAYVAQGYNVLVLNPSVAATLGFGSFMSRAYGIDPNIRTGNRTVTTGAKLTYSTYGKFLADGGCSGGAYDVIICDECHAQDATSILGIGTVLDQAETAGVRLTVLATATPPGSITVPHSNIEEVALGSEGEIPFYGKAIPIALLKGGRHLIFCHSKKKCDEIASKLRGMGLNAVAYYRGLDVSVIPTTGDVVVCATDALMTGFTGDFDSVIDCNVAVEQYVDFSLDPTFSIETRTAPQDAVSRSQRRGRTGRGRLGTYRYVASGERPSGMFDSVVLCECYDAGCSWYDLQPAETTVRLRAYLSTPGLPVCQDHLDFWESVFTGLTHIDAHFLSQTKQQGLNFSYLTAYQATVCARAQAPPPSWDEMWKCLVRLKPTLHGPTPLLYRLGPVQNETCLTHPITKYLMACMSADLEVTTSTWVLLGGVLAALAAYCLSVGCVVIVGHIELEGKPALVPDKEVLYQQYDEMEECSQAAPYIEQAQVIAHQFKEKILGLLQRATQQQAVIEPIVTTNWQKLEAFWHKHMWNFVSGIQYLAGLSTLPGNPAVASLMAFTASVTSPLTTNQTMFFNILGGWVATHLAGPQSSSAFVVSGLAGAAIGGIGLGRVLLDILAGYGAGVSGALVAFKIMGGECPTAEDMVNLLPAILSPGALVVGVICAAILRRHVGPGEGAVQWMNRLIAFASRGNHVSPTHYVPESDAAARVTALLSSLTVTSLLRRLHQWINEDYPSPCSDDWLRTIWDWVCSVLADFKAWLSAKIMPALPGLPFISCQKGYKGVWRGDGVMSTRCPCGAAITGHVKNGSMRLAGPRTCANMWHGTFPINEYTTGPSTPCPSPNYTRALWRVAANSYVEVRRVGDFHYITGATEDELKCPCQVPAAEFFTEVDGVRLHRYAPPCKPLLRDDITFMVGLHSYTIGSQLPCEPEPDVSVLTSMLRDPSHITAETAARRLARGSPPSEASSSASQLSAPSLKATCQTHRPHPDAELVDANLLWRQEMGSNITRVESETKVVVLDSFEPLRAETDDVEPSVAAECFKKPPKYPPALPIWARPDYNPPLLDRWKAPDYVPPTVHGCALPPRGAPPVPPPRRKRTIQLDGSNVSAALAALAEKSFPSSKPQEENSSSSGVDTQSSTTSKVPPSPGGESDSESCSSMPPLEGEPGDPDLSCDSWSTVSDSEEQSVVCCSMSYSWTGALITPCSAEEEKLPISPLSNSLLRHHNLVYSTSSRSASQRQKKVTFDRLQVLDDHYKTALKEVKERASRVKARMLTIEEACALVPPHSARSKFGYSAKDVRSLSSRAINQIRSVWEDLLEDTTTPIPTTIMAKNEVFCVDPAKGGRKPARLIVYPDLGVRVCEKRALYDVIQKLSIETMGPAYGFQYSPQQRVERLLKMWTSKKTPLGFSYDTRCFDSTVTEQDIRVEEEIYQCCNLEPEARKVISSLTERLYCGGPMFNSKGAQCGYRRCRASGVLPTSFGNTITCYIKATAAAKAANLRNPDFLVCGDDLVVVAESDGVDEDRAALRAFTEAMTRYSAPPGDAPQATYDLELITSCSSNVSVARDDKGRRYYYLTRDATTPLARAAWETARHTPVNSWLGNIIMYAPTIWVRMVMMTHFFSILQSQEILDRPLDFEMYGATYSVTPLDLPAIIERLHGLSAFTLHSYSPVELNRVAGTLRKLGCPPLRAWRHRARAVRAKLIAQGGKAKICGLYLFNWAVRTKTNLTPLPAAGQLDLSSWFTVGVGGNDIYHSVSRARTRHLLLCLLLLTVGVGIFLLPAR
Text: Purified NS3 protease domain (amino acids 1-181) of the genotype 1b and 3a virus were generated as above. The internally quenched fluorogenic depsipeptide substrate Ac-DED(Edans)-EEAbuΨ[COO]ASK(Dabcyl)-NH2 and a synthetic peptide containing the hydrophobic core residues of the NS4A protein cofactor ([…]; NS4A peptide) were obtained from Anaspec, Inc. (San Jose, Calif.). Other chemicals and biochemicals were of reagent grade or better and were purchased from standard suppliers.
Reactions were run at room temperature in buffer consisting of 50 mM HEPES, 40% glycerol, 0.05% Triton X-100, 10 mM DTT, and 10% DMSO. The final assay solutions contained 50 pM NS3 genotype 1 b protease or 200 pM genotype 3a protease, 20 μM NS4A peptide, and 4 μM substrate (genotype 1b) or 2 μM substrate (genotype 3a). Inhibitor concentrations varied from 100 nM to 5 pM in 3-fold dilutions, and no-inhibitor controls were included.
Compound dilutions were made in DMSO at 20× final concentration. Reaction mixtures were prepared in 96-well assay plates. A solution of enzyme and NS4A peptide in assay buffer (25 μL volume with both reagents at 4× final concentration) was mixed with 45 μL assay buffer and 5 μL of either inhibitor or DMSO, and pre-incubated at room temperature for 1 hour. The reaction was started by addition of 25 μL substrate solution at 4× final concentration. Plates were mixed vigorously for 5-10 seconds and reactions were allowed to proceed for 90 minutes, fluorescence was measured every 30 s between 90 and 120 minutes reaction time using a Tecan InfiniTe M1000 or PerkinElmer Envision multimode plate reader with an excitation wavelength of 340 nm and an emission wavelength of 490 nm.
Rates were calculated from the progress curves at steady state, in the time frame of 90-120 minutes after addition of substrate. To determine the Ki, rates were plotted as a function of inhibitor concentration, and the data were fit with equation 1 (Morrison, J. F., Biochimica et Biophysica Acta 1969, 185, 269-286) to calculate Ki^app using GraphPad Prism 5. Active fraction of enzyme was determined by active site titration with known potent inhibitors. Ki was calculated from Ki^app/(1+[[S]/Km]).

[8] = test system: genotype 3a (S52) stable HCV replicon in Huh-7-derived cells; experiment: Stable subgenomic HCV replicon EC50, genotype 3a (Renilla luciferase); type: cell-based, hepatitis C virus; conditions: 72 h, read-out: EC50 3A RLUC
[9] = test system: genotype 1a (H77) wild type transient HCV replicon in Huh-7-derived cells; experiment: Transient-transfected HCV replicon EC50, genotype 1a wild type; type: cell-based, hepatitis C virus; conditions: transient-transfected replicon genotype 1a wild type, 72 h, read-out: EC50 1A WT
[10] = test system: genotype 4a (ED43) stable HCV replicon in Huh-7-derived cells; experiment: Stable subgenomic HCV replicon EC50, genotype 4a (Renilla luciferase); type: cell-based, hepatitis C virus; conditions: 72 h, read-out: EC50 4A RLUC
In short: as §1

[11] = transient-transfected replicon genotype 1b D168A resistant variant, read-out: EC50 1B D168A
[12] = transient-transfected replicon genotype 1a R155K resistant variant, read-out: EC50 1A R155K
[13] = stable replicon genotype 3a, Renilla luciferase
[14] = stable replicon genotype 4a, Renilla luciferase

`CC[C@@H]1[C@@H]2CN(C(=O)[C@H](C(C)(C)C)NC(=O)O[C@]3(C(F)(F)F)CCCC3CCCCCc3nc4ccc(OC)cc4nc3O2)[C@@H]1C(=O)N[C@]1(C(=O)NS(=O)(=O)C2(C)CC2)C[C@H]1C(F)F` (stereo partly drawn) [Example 9, (7S,10S,11S,12R)-7-tert-butyl-N-[(1R,2R)-2-(difluoromethyl)-1-{[(1-methylcyclopropyl)sulfonyl]carbamoyl}cyclopropyl]-11-ethyl-16-methoxy-5,8-dioxo-3aR-(trifluoromethyl)-1,2,3,3a,5,6,7,8,11,12,20,21,22,23,24,24a-hexadecahydro-10H-9,12-methanocyclopenta[18,19][1,10,3,6]dioxadiazacyclononadecino[11,12-b]quinoxaline-10-carboxamide] was tested, and the EC50 [1, 11] was 360 nM, the EC50 [2] was 23 nM and the EC50 [3] was 2.5 nM. It also gave an EC50 [4] of 7.9 nM, an EC50 [5, 12] of 208 nM and an EC50 [6] of 17 nM. The Ki [7] was 0.59 nM, the EC50 [8, 13] was 1270 nM and the EC50 [9] was 12 nM. The EC50 [10, 14] was 11 nM.
Work on `CC[C@@H]1[C@@H]2CN(C(=O)[C@H](C(C)(C)C)NC(=O)O[C@@]3(C(F)(F)F)CCCC3CCCCCc3nc4ccc(OC)cc4nc3O2)[C@@H]1C(=O)N[C@]1(C(=O)NS(=O)(=O)C2(C)CC2)C[C@H]1C(F)F` (stereo partly drawn) [Example 10, (7S,10S,11S,12R)-7-tert-butyl-N-[(1R,2R)-2-(difluoromethyl)-1-{[(1-methylcyclopropyl)sulfonyl]carbamoyl}cyclopropyl]-11-ethyl-16-methoxy-5,8-dioxo-3aS-(trifluoromethyl)-1,2,3,3a,5,6,7,8,11,12,20,21,22,23,24,24a-hexadecahydro-10H-9,12-methanocyclopenta[18,19][1,10,3,6]dioxadiazacyclononadecino[11,12-b]quinoxaline-10-carboxamide] yielded an EC50 [1, 11] of 493 nM, an EC50 [2] of 49 nM and an EC50 [3] of 10 nM. It also gave an EC50 [4] of 22 nM, an EC50 [5, 12] of 131 nM and an EC50 [6] of 30 nM. It also gave a Ki [7] of 0.52 nM, an EC50 [8, 13] of 978 nM and an EC50 [9] of 37 nM. For the same compound, the EC50 [10, 14] was 26 nM.
Compound `CC[C@@H]1[C@@H]2CN(C(=O)[C@H](C(C)(C)C)NC(=O)O[C@]3(C(F)(F)F)CCC[C@H]3CCCCCc3nc4ccc(OC)cc4nc3O2)[C@@H]1C(=O)N[C@]1(C(=O)NS(=O)(=O)C2CC2)C[C@H]1C(F)F` [Example 11, (7S,10S,11 S,12R)-7-tert-butyl-N-[(1R,2R)-1-[(cyclopropylsulfonyl)carbamoyl]-2-(difluoromethyl)cyclopropyl]-1-ethyl-16-methoxy-5,8-dioxo-3aR-(trifluoromethyl)-1,2,3,3a,5,6,7,8,11,12,20,21,22,23,24,24a-hexadecahydro-1 OH-9,12-methanocyclopenta[18,19][1,10,3,6]dioxadiazacyclononadecino[11,12-b]quinoxaline-10-carboxamide] has an EC50 [1, 11] of 605 nM, an EC50 [2] of 34 nM and an EC50 [3] of 9.4 nM. The EC50 [4] was 17 nM, the EC50 [5, 12] was 159 nM and the EC50 [6] was 28 nM. For the same compound, the Ki [7] was 0.88 nM, the EC50 [8, 13] was 1160 nM and the EC50 [9] was 20 nM. It also gave an EC50 [10, 14] of 19 nM.
With `CC[C@@H]1[C@@H]2CN(C(=O)[C@H](C(C)(C)C)NC(=O)O[C@@]3(C(F)(F)F)CCC[C@H]3CCCCCc3nc4ccc(OC)cc4nc3O2)[C@@H]1C(=O)N[C@]1(C(=O)NS(=O)(=O)C2CC2)C[C@H]1C(F)F` [Example 12, (7S,10S,11S,12R)-7-tert-butyl-N-[(1R,2R)-1-[(cyclopropylsulfonyl)carbamoyl]-2-(difluoromethyl)cyclopropyl]-11-ethyl-16-methoxy-5,8-dioxo-3aS-(trifluoromethyl)-1,2,3,3a,5,6,7,8,11,12,20,21,22,23,24,24a-hexadecahydro-10H-9,12-methanocyclopenta[18,19][1,10,3,6]dioxadiazacyclononadecino[11,12-b]quinoxaline-10-carboxamide] the EC50 [1, 11] was 640 nM, the EC50 [2] was 25 nM and the EC50 [3] was 5.7 nM. The EC50 [4] was 18 nM, the EC50 [5, 12] was 283 nM and the EC50 [6] was 34 nM. The Ki [7] was 1.2 nM, the EC50 [8, 13] was 2010 nM and the EC50 [9] was 14 nM. The EC50 [10, 14] was 21 nM.
Compound `COc1ccc2nc3c(nc2c1)O[C@H]1CN(C(=O)[C@H](C(C)(C)C)NC(=O)O[C@@H]2CCC[C@H]2CCCCC3)[C@H](C(=O)N[C@]2(C(=O)NS(=O)(=O)C3(C)CC3)C[C@H]2C(F)F)[C@@H]1C` [Example 27, (3aR,7S10S,1S,12R,24aR)-7-tert-butyl-N-[(1R,2R)-2-(difluoromethyl)-1-{[(1-methylcyclopropyl)sulfonyl]carbamoyl}cyclopropyl]-16-methoxy-11-methyl-5,8-dioxo-1,2,3,3a,5,6,7,8,11,12,20,21,22,23,24,24a-hexadecahydro-10H-9,12-methanocyclopenta[18,19][1,10,3,6]dioxadiazacyclononadecino[11,12-b]quinoxaline-10-carboxamide] has an EC50 ([1]; Hepatitis C virus, read-out: EC50 1B D168A, transient-transfected replicon genotype 1b D168A resistant variant, 72 h) of 70 nM, an EC50 ([2]; Hepatitis C virus) of 6.7 nM and an EC50 ([3]; Hepatitis C virus) of 4.3 nM. It also gave an EC50 ([4]; Hepatitis C virus) of 5.2 nM, an EC50 ([5]; Hepatitis C virus, read-out: EC50 1A R155K, transient-transfected replicon genotype 1a R155K resistant variant, 72 h) of 20 nM and an EC50 ([6]; Hepatitis C virus) of 6.6 nM. The Ki [7] was 0.08 nM, the EC50 ([8]; Hepatitis C virus) was 266 nM and the EC50 ([9]; Hepatitis C virus) was 6 nM. For the same compound, the EC50 ([10]; Hepatitis C virus) was 6.1 nM.
Compound `COc1ccc2nc3c(nc2c1)O[C@H]1CN(C(=O)[C@H](C(C)(C)C)NC(=O)O[C@@H]2C[C@H]2CCCCC3)[C@H](C(=O)N[C@]2(C(=O)NS(=O)(=O)C3(C)CC3)C[C@H]2C(F)F)[C@@H]1Cc1ccccc1` [Example 32] has an EC50 ([1]; Hepatitis C virus, GETYPE1B, read-out: EC50 1B D168A, transient-transfected replicon genotype 1b D168A resistant variant, 72 h) of 653 nM, an EC50 ([2]; Hepatitis C virus) of 35 nM and an EC50 ([3]; Hepatitis C virus, GETYPE1B) of 14 nM. For the same compound, the EC50 ([4]; Hepatitis C virus) was 30 nM, the EC50 ([5]; Hepatitis C virus, GETYPE1A, read-out: EC50 1A R155K, transient-transfected replicon genotype 1a R155K resistant variant, 72 h) was 547 nM and the EC50 ([6]; Hepatitis C virus) was 59 nM. It also gave a Ki [7] of 0.87 nM, an EC50 ([8]; Hepatitis C virus) of 2310 nM and an EC50 ([9]; Hepatitis C virus, GETYPE1A) of 44 nM. It also gave an EC50 ([10]; Hepatitis C virus) of 30 nM.
